One test addresses T1, Human NHE-1 (Homo sapiens, UniProt P19634).
T1 construct: expressed in transfected cells; host or cells: CCL39-derived PS120 cells (PS120/NHE-1)
As to the kind of experiment: Inhibitory effect on NHE-1 in PS120/NHE-1 cells (recovery from intracellular acidosis, BCECF fluorescence). The note with it: human NHE-1 expressed PS120 cells; concentration at which recovery from intracellular acidosis was 50% inhibited. The class given is cell-based.

A further test concerns cortical neurons. In words: Neuroprotective effect against glutamate-induced neurotoxicity. In kind it is cell-based, rat. Particulars: for TUNEL-Positive Cells (apoptosis): 12 hours after glutamate treatment; for Free LDH Levels (necrosis): 20 hours after glutamate treatment. As for the experimental part: Cortical neurons were isolated from the brain of 14-day-old fetal rats and cultured in Eagle's MEM (Minimum essential medium) at 37° C. in a 5% CO2 atmosphere. On day 3 or 4 of culturing, 10 μM cytosine-β-arabinofuranoside (AraC) was added to the culture medium to prevent the overgrowth of glial cells. […] On day 7˜9 of culturing, the cells were induced to cellular toxicity by treatment with 100 μM glutamate in combination with the compounds of interest or vehicle alone as a negative control. Necrosis was determined by released LDH (Lactate dehydrogenase) levels at 20 hours after glutamate treatment. For the analysis of apoptosis, the count of TUNEL (Terminal deoxynucleotidyl transferase UTP nick end labeling)-positive cells was measured at 12 hours after glutamate treatment.

T1 sequence (P19634 whole entry): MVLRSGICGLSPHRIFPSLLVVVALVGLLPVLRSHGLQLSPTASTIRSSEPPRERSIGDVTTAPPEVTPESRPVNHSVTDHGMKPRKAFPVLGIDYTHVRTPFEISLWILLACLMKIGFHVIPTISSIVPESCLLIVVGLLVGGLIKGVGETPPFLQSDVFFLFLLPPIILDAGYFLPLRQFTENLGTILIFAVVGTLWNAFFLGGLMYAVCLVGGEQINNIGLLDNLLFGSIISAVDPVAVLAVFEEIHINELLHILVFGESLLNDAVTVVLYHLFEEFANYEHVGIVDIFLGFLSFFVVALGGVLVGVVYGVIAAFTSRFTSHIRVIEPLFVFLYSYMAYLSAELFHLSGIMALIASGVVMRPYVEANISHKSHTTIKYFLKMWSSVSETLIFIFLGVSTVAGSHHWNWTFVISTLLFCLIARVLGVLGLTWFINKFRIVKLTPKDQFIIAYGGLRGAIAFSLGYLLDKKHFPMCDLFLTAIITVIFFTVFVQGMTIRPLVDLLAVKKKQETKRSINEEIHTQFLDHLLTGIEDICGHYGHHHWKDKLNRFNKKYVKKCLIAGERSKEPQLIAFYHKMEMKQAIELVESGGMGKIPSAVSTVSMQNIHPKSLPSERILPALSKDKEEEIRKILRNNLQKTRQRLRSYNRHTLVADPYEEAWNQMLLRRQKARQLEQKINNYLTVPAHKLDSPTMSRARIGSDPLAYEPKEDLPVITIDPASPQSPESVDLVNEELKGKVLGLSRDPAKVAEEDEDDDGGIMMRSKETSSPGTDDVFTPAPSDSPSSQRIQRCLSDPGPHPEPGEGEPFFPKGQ

The compound `CS(=O)(=O)O.N#Cc1cccc2sc(C(=O)N=C(N)N)cc12` [Example 42, (4-Cyanobenzothiophene-2-Carbonyl)Guanidine Methanesulfonate] showed an IC50 against Human NHE-1 of 2020 nM. Further, the “TUNEL-Positive Cells (apoptosis)” value with cortical neurons (0.1 μM with 100 μM glutamate) is reported as 28.6; with cortical neurons (1.0 μM with 100 μM glutamate), 23.9; in the test with cortical neurons (10 μM with 100 μM glutamate) it was 18.8; in the test on cortical neurons (100 μM with 100 μM glutamate) it was 12.6. The “Free LDH Levels (necrosis)” value was 58.6 in the test on cortical neurons (0.1 μM with 100 μM glutamate), 43.2 in the test with cortical neurons (1.0 μM with 100 μM glutamate), 38.8 with cortical neurons (10 μM with 100 μM glutamate) and 32.3 in the test on cortical neurons (100 μM with 100 μM glutamate). For the same compound, the “necrosis and apoptosis of neurons (glutamate-induced neurotoxicity)” value in the test with cortical neurons (0.1-100 μM with 100 μM glutamate) was “inhibited the necrosis and apoptosis of neurons in dose-dependent manners”.

The values are drawn from patent US8143307B2, “Benzothiophen-2-carbonylguanidine derivatives, preparation thereof, and pharmaceutical composition containing the same” (Korea Research Institute of Chemical Technology, priority 2004, dated 2012).
